Test results reported in US20220372014A1, “NEUROPROTECTIVE COMPOUNDS AND METHODS OF USE THEREOF” (The Johns Hopkins University, priority 2019, published 2022).

Tests used:
[1] = target: T1, MIF (Homo sapiens, UniProt P14174); assay: Nuclease assay of Example 3 (MIF inhibitory activity, Table 4); format: biochemical; set-up: (%) inhibition of MIF nuclease activity: concentration or dose not given beside the values; details: nuclease assay of Example 3
T1 sequence (P14174 1-115): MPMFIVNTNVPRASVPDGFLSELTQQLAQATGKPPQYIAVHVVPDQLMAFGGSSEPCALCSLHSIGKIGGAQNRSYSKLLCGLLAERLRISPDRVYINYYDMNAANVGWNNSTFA
Procedure: A rapafucin library was synthesized as described in WO2017/136708 and Guo et al. (2018) Nat. Chem. 11:254-63. The hybrid macrocyclic library consisted of 45,000 compounds in pools of 15 individual compounds. The library compounds were screened for MIF inhibitory activity using a nuclease assay as detailed in FIG. 1 and below.
Nuclease assay: Human genomic DNA (200 ng/reaction, Promega), pcDNA (200 ng/reaction) or PS^30 and its related and non-related substrates (1 μM) was incubated with wild type MIF or its variants at a final concentration of 0.25-8 μM as indicated in 10 mM Tris-HCl buffer (pH 7.0) containing 10 mM MgCl2 and 1 mM DTT or specific buffer as indicated, for 1 h (with pcDNA and small DNA substrates) or 4 h (with human genomic DNA) at 37° C. The reaction was terminated with loading buffer containing 10 mM EDTA and incubation on ice. The human genomic DNA samples were immediately separated on a 1.2% pulse field certified agarose in 0.5×TBE buffer with initial switch time of 1.5 s and a final switch time of 3.5 s for 12 h at 6 V/cm. pcDNA samples were determined by 1% agarose gel. Small DNA substrates were separated on 15% or 25% TBE-urea polyacrylamide (PAGE) gel or 20% TBE PAGE gel. Then gel was stained with 0.5 μg/ml Ethidium Bromide (EtBr) followed by electrophoretic transfer to nylon membrane. Then, Biotin-labeled DNA is further detected by chemiluminescence using Chemiluminescent Nucleic Acid Detection Module (Thermo Scientific).
Structure-activity relationship (SAR) analysis was then conducted on the compounds identified as having MIF inhibitory activity. Compounds having the structure of Formula (I) were then synthesized as shown in Example 1 and tested for MIF inhibitory activity using the nuclease assay described herein and neuronal protection via a cell death assay as detailed below.

[2] = system: HeLa cells or neuronal cells; assay: Cell death assay of Example 3 (MNNG, alamarBlue; protection against parthanatos, Table 4); format: cell-based; details: 1 μM test compound, MNNG-induced cell death, alamarBlue
Procedure: Cell death assay: 200 μl of cells (HeLa cells or neuronal cells) culture (1×10^4 cells/well) were plated into the wells of a sterile 96-well cell culture plate. The cells were incubated for 18 hours at 37° C. The medium was removed and changed with 100 μl/well of 1 μM test compound. Incubate for 1 hours at 37° C. Ten μl of 500 μM MNNG (N-Methyl-N′-nitro-N-nitrosoguanidine) was added to each well. The medium was aspirated well and incubated for 15 min at 37° C. The cells were washed with the fresh medium. The medium was changed with 1 μM of test compound and incubated for 18 hours at 37° C. 10 μl/well of alamarBlue reagent was added directly to the well and incubated for 1 to 4 hours at 37° C. Fluorescence was measured using a fluorescence excitation wavelength of 560 nm and emission at 590 nm. The percentage of cell death was determined as the ratio of live to dead cells compared with the percentage of cell death in control wells to account for cell death attributed to mechanical stimulation of the cultures.

| SMILES | (%) inhibition of MIF nuclease activity [1] [%] | (%) inhibition of cell death [2] [%] |
| --- | --- | --- |
| COc1ccc(CC[C@H]2OC(=O)[C@@H]3CCCCN3C(=O)C(=O)C(C)(C)COC(=O)C=CCCN(C)C(=O)CNC(=O)[C@H](COC(C)(C)C)N(C)C(=O)C(c3ccccc3)NC(=O)CN(C)C(=O)COc3cccc2c3)cc1OC (stereo partly shown) [compound 31] | 22.9 | 52.3 |
| COc1ccc(CC[C@H]2OC(=O)[C@@H]3CCCCN3C(=O)C(=O)C(C)(C)COC(=O)C=CCCN(C)C(=O)[C@H](Cc3ccc4ccccc4c3)NC(=O)[C@H](Cc3ccccc3)N(C)C(=O)[C@@H](C)NC(=O)CN(C)C(=O)COc3cccc2c3)cc1OC [compound 73] | 40.2 | 53.0 |
| COc1ccc(CC[C@H]2OC(=O)[C@@H]3CCCCN3C(=O)C(=O)C(C)(C)COC(=O)C=CCCN(C)C(=O)[C@@H](C)NC(=O)[C@H](COC(C)(C)C)N(C)C(=O)C(c3ccccc3)NC(=O)[C@H](C)N(C)C(=O)COc3cccc2c3)cc1OC (stereo partly shown) [compound 48] | 61.5 | 49.2 |
| COc1ccc(CC[C@H]2OC(=O)[C@@H]3CCCCN3C(=O)C(=O)C(C)(C)COC(=O)C=CCCN(C)C(=O)[C@H](CC3CCCCC3)NC(=O)[C@H](Cc3ccccc3)N(C)C(=O)[C@@H](C)NC(=O)CN(C)C(=O)COc3cccc2c3)cc1OC [compound 72] | 21.2 | 55.3 |
| COc1ccc(CC[C@H]2OC(=O)[C@@H]3CCCCN3C(=O)C(=O)C(C)(C)COC(=O)C=CCCN(C)C(=O)[C@H](c3ccccc3)NC(=O)[C@H](COC(C)(C)C)N(C)C(=O)C(c3ccccc3)NC(=O)[C@H](C)N(C)C(=O)COc3cccc2c3)cc1OC (stereo partly shown) [compound 60] | 59.4 | 55.4 |
| COc1ccc(CC[C@H]2OC(=O)[C@@H]3CCCCN3C(=O)C(=O)C(C)(C)COC(=O)C=CCCN(C)C(=O)[C@H](C(C)C)NC(=O)[C@H](COC(C)(C)C)N(C)C(=O)[C@H](Cc3ccc4ccccc4c3)NC(=O)[C@H](C)N(C)C(=O)COc3cccc2c3)cc1OC [compound 29] | 12.4 | 57.8 |
| COc1ccc(CC[C@H]2OC(=O)[C@@H]3CCCCN3C(=O)C(=O)C(C)(C)COC(=O)C=CCCN(C)C(=O)[C@H](CC3CCCCC3)NC(=O)[C@H](COC(C)(C)C)N(C)C(=O)C(c3ccccc3)NC(=O)[C@H](C)N(C)C(=O)COc3cccc2c3)cc1OC (stereo partly shown) [compound 57] | 18.4 | 59.3 |
| COc1ccc(CC[C@H]2OC(=O)[C@@H]3CCCCN3C(=O)C(=O)C(C)(C)COC(=O)C=CCCN(C)C(=O)[C@@H](C)NC(=O)[C@H](COC(C)(C)C)N(C)C(=O)[C@@H](CC(C)C)NC(=O)CN(C)C(=O)COc3cccc2c3)cc1OC [compound 3] | 21.0 | 40.6 |
| COc1ccc(CC[C@H]2OC(=O)[C@@H]3CNCCN3C(=O)C(=O)C(C)(C)COC(=O)C=CCCN(C)C(=O)[C@@H]3CCCN3C(=O)[C@H](COC(C)(C)C)N(C)C(=O)C(c3ccccc3)NC(=O)[C@H](C)N(C)C(=O)COc3cccc2c3)cc1OC (stereo partly shown) [compound 128] | 11.0 | 47.4 |
| COc1ccc(CC[C@H]2OC(=O)[C@@H]3CCCCN3C(=O)C(=O)C(C)(C)COC(=O)C=CCCN(C)C(=O)[C@@H]3CCCN3C(=O)[C@H](COC(C)(C)C)N(C)C(=O)[C@@H](CC(C)C)NC(=O)CN(C)C(=O)COc3cccc2c3)cc1OC [compound 11] | 25.6 | 48.9 |
| COc1ccc(CC[C@H]2OC(=O)[C@@H]3CCCCN3C(=O)C(=O)C(C)(C)COC(=O)C=CCCN(C)C(=O)[C@H](Cc3ccc(F)cc3)NC(=O)[C@H](COC(C)(C)C)N(C)C(=O)[C@@H](CC(C)C)NC(=O)CN(C)C(=O)COc3cccc2c3)cc1OC [compound 10] | 56.8 | 57.2 |
| COc1ccc(CC[C@H]2OC(=O)[C@@H]3CCCCN3C(=O)C(=O)C(C)(C)COC(=O)C=CCCN(C)C(=O)[C@@H]3CCCN3C(=O)[C@H](COC(C)(C)C)N(C)C(=O)[C@H](Cc3ccc(F)cc3)NC(=O)[C@H](C)N(C)C(=O)COc3cccc2c3)cc1OC [compound 103] | 16.8 | 22.5 |
| CCC[C@@H]1NC(=O)[C@H](Cc2ccccc2)N(C)C(=O)[C@@H](C)NC(=O)CN(C)C(=O)COc2cccc(c2)[C@@H](CCc2ccc(OC)c(OC)c2)OC(=O)[C@@H]2CCCCN2C(=O)C(=O)C(C)(C)COC(=O)C=CCCN(C)C1=O [compound 64] | 27.2 | 52.3 |
| COc1ccc(CC[C@H]2OC(=O)[C@@H]3CCCCN3C(=O)C(=O)C(C)(C)COC(=O)C=CCCN(C)C(=O)[C@@H]3CCCN3C(=O)[C@H](COC(C)(C)C)N(C)C(=O)C(c3ccccc3)NC(=O)C(c3ccccc3)N(C)C(=O)COc3cccc2c3)cc1OC (stereo partly shown) [compound 144] | 10.7 | 51.3 |
| COc1ccc(CC[C@H]2OC(=O)[C@@H]3CCCCN3C(=O)C(=O)C(C)(C)COC(=O)C=CCCN(C)C(=O)[C@H](Cc3ccc4ccccc4c3)NC(=O)[C@H](COC(C)(C)C)N(C)C(=O)C(c3ccccc3)NC(=O)CN(C)C(=O)COc3cccc2c3)cc1OC (stereo partly shown) [compound 43] | 45.6 | 54.8 |
| COc1ccc(CC[C@H]2OC(=O)[C@@H]3CCCCN3C(=O)C(=O)C(C)(C)COC(=O)C=CCCN(C)C(=O)[C@@H](CC(C)C)NC(=O)[C@H](COC(C)(C)C)N(C)C(=O)[C@@H](CC(C)C)NC(=O)CN(C)C(=O)COc3cccc2c3)cc1OC [compound 7] | 30.1 | 54.5 |
| COc1ccc(CC[C@H]2OC(=O)[C@@H]3CCCCN3C(=O)C(=O)C(C)(C)COC(=O)C=CCCN(C)C(=O)[C@@H]3CCCN3C(=O)[C@H](COC(C)(C)C)N(C)C(=O)C(Cc3ccc(O)cc3)NC(=O)[C@H](C)NC(=O)COc3cccc2c3)cc1OC (stereo partly shown) [compound 142] | −4.7 | 42.5 |
| COc1ccc(CC[C@H]2OC(=O)[C@@H]3CCCCN3C(=O)C(=O)C(C)(C)COC(=O)C=CCCN(C)C(=O)[C@@H]3CCCN3C(=O)[C@H](COC(C)(C)C)N(C)C(=O)[C@H](Cc3ccc(O)cc3)N(C)C(=O)[C@H](C)NC(=O)COc3cccc2c3)cc1OC [compound 141] | 9.2 | 46.8 |
| COc1ccc(CC[C@H]2OC(=O)[C@@H]3CCCCN3C(=O)C(=O)C(C)(C)COC(=O)C=CCCN(C)C(=O)[C@@H]3CCCN3C(=O)[C@H](COC(C)(C)C)N(C)C(=O)C(c3ccccc3)NC(=O)[C@H](COC(C)(C)C)N(C)C(=O)COc3cccc2c3)cc1OC (stereo partly shown) [compound 146] | −1.1 | 43.9 |
| COc1ccc(CC[C@H]2OC(=O)[C@@H]3CCCCN3C(=O)C(=O)C(C)(C)COC(=O)C=CCCN(C)C(=O)[C@H](Cc3ccc4ccccc4c3)NC(=O)[C@H](COC(C)(C)C)N(C)C(=O)[C@@H](CC(C)C)NC(=O)CN(C)C(=O)COc3cccc2c3)cc1OC [compound 13] | 21.9 | 46.7 |
| COc1ccc(CC[C@H]2OC(=O)[C@@H]3CCCCN3C(=O)C(=O)C(C)(C)COC(=O)C=CCCN(C)C(=O)[C@@H]3CC(O)CN3C(=O)[C@H](COC(C)(C)C)N(C)C(=O)C(c3ccccc3)NC(=O)[C@H](C)N(C)C(=O)COc3cccc2c3)cc1OC (stereo partly shown) [compound 93] | 14.6 | 66.8 |
| COc1ccc(CC[C@H]2OC(=O)[C@@H]3CCCCN3C(=O)C(=O)C(C)(C)COC(=O)C=CCCN(C)C(=O)[C@@H]3CCCN3C(=O)[C@H](COC(=O)CCC(=O)OCCOCCOCCOCCNC(=O)CCCCC3SC[C@H]4NC(=O)N[C@@H]34)N(C)C(=O)C(c3ccccc3)NC(=O)[C@H](C)N(C)C(=O)COc3cccc2c3)cc1OC (stereo partly shown) [compound 130] |  | 48.2 |
